According to ChEMBL document CHEMBL1140784, “Leishmanicidal and trypanocidal activities of 2-aminocyclohexanol and 1,2-cyclohexanediamine derivatives” (Bioorg Med Chem Lett, 2008):

Tests used:
Leishmania amazonensis = assay: Antileishmanial activity against Leishmania amazonensis IFLA/BR/67 promastigotes at pH 8.0 after 72 hrs; assay type: functional, organism-based
Leishmania donovani = assay: Antileishmanial activity against Leishmania donovani MHOM/BR/74/PP75 promastigotes after 72 hrs; conditions: MHOM/BR/74/PP75, 72 h
Trypanosoma cruzi = assay: Antitrypanosomal activity against Trypanosoma cruzi Tulahuen epimastigotes after 72 hrs; assay type: functional, organism-based
Leishmania braziliensis = assay: Antileishmanial activity against Leishmania braziliensis MHOM/BR/75/M2903 promastigotes after 72 hrs; assay type: functional, organism-based; conditions: MHOM/BR/75/M2903, 72 h

SMILES | IC50 (Leishmania amazonensis) | IC50 (Leishmania donovani) | IC50 (Trypanosoma cruzi) | IC50 (Leishmania braziliensis)
CCCCCCCCCCCCC/C=C1/CCC[C@@H](NCCCC)[C@@H]1OC(C)=O | 7.3 µM | 9.6 µM | 1.2 µM | 7.3 µM
CCCCCCCCCCCCC/C=C1/CCC[C@@H](NCc2ccccc2)[C@@H]1NCCCCCC | 15.5 µM | 13 µM | 98 µM | 10.8 µM
CCCCCCCCCCCCC/C=C1/CCC[C@H](O)[C@H]1OC(C)=O | 11.6 µM | 13.3 µM | 8.8 µM | 13.3 µM
CCCCCCCCCCCCC/C=C1/CCC[C@H](NCCCC)[C@H]1OC(C)=O | 9.1 µM | 8.6 µM | 8.6 µM | 8.8 µM
CCCCCCCCCCCCC/C=C1/CCC[C@H](OCc2ccccc2)[C@H]1N(CC)CC | 157 µM | 157 µM | 106 µM | 148 µM
CCCCCCCCCCCCC/C=C1/CCC[C@@H]2[C@H]1N2Cc1ccccc1 (stereo partly specified) | 16.2 µM | 19.9 µM | 31 µM | 16.2 µM
CCCCCCCCCCCCC/C=C1/CCC[C@@H](NCCCC)[C@@H]1NCCCCCC | 14 µM | 17.4 µM | 116 µM | 14 µM
CCCCCCCCCCCCC/C=C1/CCC[C@@H]2[C@H]1N2CCCCCC (stereo partly specified) | 2.4 µM | 1.8 µM | 51 µM | 2.4 µM
CCCCCCCCCCCCC/C=C1/CCC[C@H](O)[C@H]1NCCN (relative stereo) | 1.1 µM | 1.1 µM | 0.14 µM | 1.1 µM
CCCCCCCCCCCCCC[C@@H]1CCC[C@H](O)[C@H]1N (relative stereo) | 0.26 µM | 0.29 µM | 0.19 µM | 0.29 µM
C[C@@H]1[C@H](O)[C@@H](C)/C=C/C=C/C=C/C=C/C=C/C=C/C=C/[C@H](O[C@@H]2O[C@H](C)[C@@H](O)[C@H](N)[C@@H]2O)C[C@@H]2O[C@](O)(C[C@@H](O)C[C@@H](O)[C@H](O)CC[C@@H](O)C[C@@H](O)CC(=O)O[C@H]1C)C[C@H](O)[C@H]2C(=O)O (stereo in doubt) [AMPHOTERICIN B] | 0.2 µM | – | – | 0.2 µM
O=C(Cn1ccnc1[N+](=O)[O-])NCc1ccccc1 [BENZNIDAZOLE] | – | – | 74 µM | –
N=C(N)c1ccc(OCCCCCOc2ccc(C(=N)N)cc2)cc1 [PENTAMIDINE] | 29.4 µM | 29.4 µM | – | 29.4 µM
